Consider three compounds from patent US20200124597A1, “INDICATOR RELEASE SYSTEM FOR THE DETECTION OF AN ANALYTE IN A FOODSTUFF, TEST STRIP THEREFOR, AND ANALYSIS METHOD” (Bundesrepublik Deutschland, vertreten durch die …, priority 2017, published 2020).

In data set [1] the test system is rabbit antisera against the hapten sulfathiazole (STZ), capping antibody. As to the kind of experiment: Biphasic extraction assay: fluorescence of CHCl3 phase after dye extraction from M7-A1@B suspensions in raw milk. In kind it is binding. As for the experimental part: (§1) Capping of the material was performed following the same conditions as for the preparation of M4-A1 @B, but in this case 1 mg of the mesoporous silica was suspended in 450 μL of PBS containing 360 ppm of BODIPY-PEG and 2 μL of the serum for 30 min. Thereafter, 50 μL of BSA solution (5%) were added to the suspensions and stirred for another 1.5 h. […] Before centrifuging the suspension in the last washing cycle, it was divided into 10 fractions, which were dried separately for 1 h in the vacuum at room temperature and stored in the fridge, yielding 10 fractions of ca. 100 μg of M7-A1@B.
Next, the effect of the concentration of STZ and SPY was studied. For this purpose, we repeated the procedure but added different concentrations of the corresponding sulfonamide into each fraction and took an aliquot from the chloroform phase after 10 min of reaction (FIG. 10). In this case, milk stored in the fridge for 5 and 7 d was used. It is obvious that a highly sensitive response could be found in both cases, with an LOQ of 0.5±0.1 ppb and an IC50 of 0.8±0.1 ppb for STZ. For SPY, both the fluorescence increase and the sensitivity are lower (LOQ: 4.6±2.2 ppb, IC50: 16.2±6.9 ppb).
The red points were classified as outliers and not considered in the fit (N=2, only one repetition shown).
The sensitivity could further be improved by increasing the number of washing cycles of the material before use, although the fluorescence enhancement is lower due to partial dye removal during continued washing. […] Furthermore, the amount of dye released in the working range of the assay at lower STZ concentrations (100 ppt) is at least 100 times higher, preferably 200-times higher than that of antibody displaced, decreasing to 80-times at concentrations higher than 50 ppb, which is a remarkable sign of signal amplification especially in the desired low-concentration range.

Data set [2] is described as follows: Dye partitioning from water/milk to CHCl3. In kind it is physicochemical. Particulars: phase transfer from water/milk to CHCl3. As for the experimental part: as §1
The subject of data set [3] is rabbit antisera against the hapten sulfathiazole (STZ), capping antibody. As to the kind of experiment: Fluorescence of supernatants of M4-A1@B (SRB-loaded, antibody-gated MCM-41) suspensions after adding STZ prepared in milk. In kind it is binding. The conditions noted are these: M4-A1@B suspension in PBS, STZ solutions prepared in milk, λem=585 nm, λexc=560 nm, logistic fit. As to the method: The pores of the particles were filled with the dye sulforhodamine B (SRB). With the aim of loading the maximum amount of dye into the MCM-41 scaffold, a solution of the dye SRB sodium salt (2 mmol L^−1) was prepared in acetonitrile. Then, 2 portions of 12.0 mL were added to 300 mg of each MCM-41 nano- or microparticle material, yielding a suspension with a concentration of 0.8 mmol dye (g solid)^−1. The suspension was stirred for 24 h at room temperature. Two fractions of each type of material (2×40 mL) were centrifuged (5 min at 6000 rpm) and concentrated in a final volume of 1.5 mL. Thereafter, volumes of 0.14 mL and 0.7 mL of hapten solution (0.02 and 0.01 mmol) in DMF were added, arriving at final suspensions of 0.2 and 0.1 mmol (g solid)^−1. The resulting suspensions were stirred for 5.5 h at room temperature. Finally, the suspensions were centrifuged (5 min at 6000 rpm), and the solids obtained were washed with acetonitrile (0.75 mL), isolated by centrifugation, and dried at 35° C. in vacuum during 12 h. […]
The fluorescence enhancement caused by STZ at different concentrations was assessed in milk as well. […] Then, 6 μL of STZ solutions of different concentrations were added to the other fractions, the vials shaken by hand for 20 s and centrifuged before measuring the fluorescence of the supernatants in a fluorometer (λem=585 nm, λexc=560 nm).

Data set [4] shares this test system. As to the kind of experiment: Lateral flow test strips spotted with M4-A1@B, developed in raw milk spiked with STZ, fluorescence reader. In kind it is binding. The conditions noted are these: M4-A1@B on nitrocellulose strips, ratio FB/(FA+FB) with lateral flow reader, data considerably noisy. An excerpt: As explained above, after development the strips show two different zones, a first one (zone A) at which the sensing material (indicator reservoir) has been deposited, and a second one (zone B) in which the released dye is collected that could travel with the solvent front (see FIGS. 2, 7).
In case of absence of a sulfonamide, the second zone (zone B in FIG. 7) should show minimum signal. In case of presence, the fluorescence in that zone should correlate with analyte concentration. The amount of dye released can be quantified with a fluorescence reader with appropriate excitation and emission wavelengths or by taking pictures under proper light excitation conditions. Strips were prepared using a Hi-Flow nitrocellulose paper from Millipore®. […]
Afterwards, the strips were dipped into 150 μL of raw milk spiked with various amounts of STZ, developed and let dried at room temperature. […] Afterwards, the fluorescence histograms were registered with a lateral flow reader and a home-made housing equipped with an LED (λexc 505 nm) as excitation source and filters (532 nm cut-off and 550 nm long-pass) that can be fitted to a conventional digital camera. […] FIG. 6 c) (luminance of dye released in second zone and FIG. 6 d) (ratio of luminance) allows to compare the reader results with those obtained by extracting the luminance from images taken with a camera. […]

Data set [5] has the same test system. In words: Fluorescence of supernatants of M7-A1@B (BODIPY-PEG-loaded, antibody-gated) suspensions in milk. The conditions noted are these: M7-A1@B suspension in milk, 10 min, 535 nm (λexc=515 nm), logistic fit. In kind it is binding. As for the experimental part: as §1
In an attempt to avoid the extraction process, and with the aim to compare the effect of different dyes to M4-A1 @B, respectively, first of all the material M7-A1@B was tested in absence and in presence of several amounts of STZ following similar a procedure as explained previously. For that purpose, two independent experiments were performed, using in one case milk provided from FOSS stored in the fridge (6 d) and fresh milk from Poland (1 d in the fridge). […] Then, 20 μL of STZ solutions of different concentrations were added to the rest of the fractions (80 μL), the vials were shaken in the thermomixer at 800 rpm for 10 min, centrifuged and the fluorescence of the supernatants measured at 535 nm with λexc=515 nm (FIG. 9).

Setting [6] is: M7-A1@B in raw milk, CHCl3 phase, 10 min reaction, 538 nm (λexc=515 nm).
[7] abbreviates: M7-A1@B, increased number of washing cycles of the material before use.

In data set [1] (setting [6]), `Nc1ccc(S(=O)(=O)Nc2ccccn2)cc1` [SPY, sulfapyridine] registered an IC50 of 16.2±6.9 ppb and an LOQ of 4.6±2.2 ppb. In data set [1] (setting [7]), this compound showed an IC50 of 4.4±1.7 ppb and an LOQ of 0.78±0.38 ppb.

For `CCN(CC)c1ccc2c(-c3ccc(S(=O)(=O)O)cc3S(=O)(=O)[O-])c3ccc(=[N+](CC)CC)cc-3oc2c1` [sulforhodamine B], the dye partitioning coefficient result in data set [2] is recorded as “too low to undergo efficient phase transfer”.

On to `Nc1ccc(S(=O)(=O)Nc2nccs2)cc1` [STZ, sulfathiazole], for which the “IC20, i.e. limit of quantification (LOQ)” value in data set [3] came to 87±8 ppb. The IC50 in data set [3] is reported as 172±12 ppb; in data set [4] it was “below 1 ppb”; in data set [5], 1.5±1.4 ppb; in data set [1] (setting [6]), 0.8±0.1 ppb; in data set [1] (setting [7]) it was 0.28±0.15 ppb. The “limit of quantification (LOQ)” value in data set [5] is 65±18 ppt. Also, the LOQ in data set [1] (setting [6]) is 0.5±0.1 ppb; in data set [1] (setting [7]) it was 0.02±0.01 ppb.
